In patent US6642012B1, “Spectroscopic determination of characteristic of biological material” (priority 1996, dated 2003):

System: Peripheral blood mononuclear cells (PBMC)
Test: FTIR monitoring of lymphocyte activation
Type: cell-based, human
Protocol: Peripheral blood mononuclear cells (PBMC) from two volunteers, isolated using gradient mixtures were twice washed in 0.9% saline and centrifuged. The resulting pellets were resuspended in 1 ml of saline. One half of each sample was activated with phorbol myristate acetate (PMA) and the other half used as a control. After 15 minutes the four portions were desiccated and transferred to a infrared cell for FTIR microanalysis. For each portion six spectra were recorded.

[1] = PMA activated vs non-activated lymphocytes, 15 minutes

With CCCCCCCCCCCCCC(=O)O[C@@H]1[C@@H](C)[C@@]2(O)[C@@H](C=C(CO)C[C@]3(O)C(=O)C(C)=C[C@@H]23)[C@@H]2C(C)(C)[C@]12OC(C)=O [PMA, phorbol myristate acetate] the “FTIR spectra of activated vs non-activated lymphocytes” value (PBMC from two volunteers, PMA activation 15 minutes, desiccated, FTIR microanalysis) was “marked differences”, the “amide II band” value (PMA activated lymphocytes, 15 minutes) was “multitude of shoulder peaks” and the “C—O stretch of fatty acyl groups (1400 cm-1) and C—O stretches of glycogen bands at 1058 and 1038 cm-1” value [1] was “much more intense”. For the same compound, the “amide I β-pleated sheet component band at 1634 cm-1” value [1] was “increase” and the “α-helical amide I band” value [1] was “reduction”.
